The source of these data is paper PMC12746157, “Light-Regulated Agonists Spatiotemporally Activating the Vitamin D Receptor Mitigate Psoriasis-like Inflammation in Mice without Inducing Hypercalcemia” (ACS Central Science, 2025).

Data set [1] is described as follows: Proportions of cis and trans at the photostationary state in DMSO from absorbance spectra (Ernst Fischer method). The class given is physicochemical. The procedure: 2. Photochemical characterization.
A 50 µM solution of each compound in DMSO was dispensed into a transparent 96-well plate (200 µL per well). The absorption spectra were recorded from 300 to 600 nm with 2 nm fixed intervals using a Tecan Spark 20M Multimode microplate reader. Initial measurements were performed in the dark, followed by spectra acquired immediately after each 3 min period of light irradiation at different wavelengths using 96-well LED array plates (LEDA Teleopto). Theoretical absorbance spectra corresponding to the pure cis isomer (100%) of each compound were calculated in order to obtain the theoretical percentage of cis isomer at each wavelength, according to the method described by Ernst Fischer (1967). […]
Table S6. Proportions of cis and trans at the photostationary state in DMSO. […]

The next data set addresses VDR (Homo sapiens, UniProt P11473). In words: Luminescent proximity homogeneous assay (AlphaScreen): interaction of purified VDR, RxR and TRAP220 coactivator fragment. Format: biochemical. As to conditions: for EC50 / Emax: after illumination (365 nm) for 3 min, mean ± SEM; for EC50: n >= 3, read-out: Activity (pEC50) (converted); for Emax: normalized to maximum response of LSN2148936 (100%). On the procedure:
The activity of all molecules was evaluated using a luminescent proximity homogeneous assay to study interactions between purified VDR, RxR and a fragment of the transcriptional coactivator TRAP220 (Supporting Information). This method allowed us to monitor the interaction between TRAP220 and the activated VDR-RxR heterodimer, which is of mechanistic and physiological significance. Both the activation of VDR and the VDR-RxR heterodimer formation are necessary to promote the whole complex association. This system efficiently includes conformational events of the receptor upon activation that go beyond a simple binding measurement. […]
The activity of all molecules was evaluated using an in-vitro luminescent proximity homogeneous assay by using the Alphascreen technology (Cat No. 6760619R, Perkin Elmer, now Revvity). In a transparent 96-well preplate, 10X concentrations of the compounds were prepared in assay buffer (0.1% bovine serum albumin, 2 mM 1,4-dithiothreitol, 25 mM HEPES and 100 mM NaCl; pH 7.3). LSN2148936 was used as positive control. Purified histidine-tagged VDR (44 µM), flag-RxRa (5.7 µM), biotin tagged TRAP220 transcriptional coactivator (500 µM), and the donor and acceptor beads from the AlphaScreen kit (2 µL/mL each), were diluted in assay buffer. In the dark, 6 µL/well of each test compound were pipetted on a white, shallow 96-well ProxiPlateTM […]
(Perkin Elmer, now Revvity, Cat.No. 6006290) in duplicate. Immediately, 54 µL of the protein solution were added and the plate was covered and incubated for 30 min at room temperature in the dark. Meanwhile, the plate with the 10X dilutions was illuminated at 365 nm for 3 min in a 96-well DED array plate (LEDA Teleopto), to allow the photoconversion of the molecules to their cis configuration. The illuminated compounds were mixed with the protein solution and incubated as described above for the plate in the dark. After the incubation time, the counts of both, the dark and illuminated plates, were measured in a Tecan Spark 20M Multimode plate reader with defined settings (excitation: 680 nm, emission: 520-620 nm, excitation time: 100ms, integration time: 300 ms). Biotinylated-His6 peptide (PerkinElmer) was used as a quality control reagent for AlphaScreen® assays and to evaluate compound interaction with the method. The raw data were normalized to the effect of the buffer (0%) and the maximum response obtained with LSN2148936 (100%). Dose-response curves and EC50 values were calculated with Graphpad software. Each experiment was performed in triplicate, with 2 replicates per plate.
4. Hydrogen/deuterium exchange coupled to mass spectrometry (HDX-MS)
The HDX-MS experiments were performed with an in-house automated modular system interfaced with an Orbitrap Exploris 480 mass spectrometer.1 Two inter-day experiments were conducted: one in the dark (first day) and one illuminated with 365 nm light (second day). Sample preparation and on-exchange reactions were performed on opaque plates (VWR® Real-Time […]
mm, Part Nº BC5226) light source was positioned above the Tecan system used for sample preparation. The distance between the UV light and the opaque plates was 80 cm. The 365 nm light illuminated the sample preparation process and the on-exchange reaction on the second day.
A 10 µM VDR-LBD protein stock solution was prepared in 20 mM HEPES buffer (with 150 mM NaCl, 10 mM D-L Methionine and 5 mM DTT) at pH 7.5. The compound 11b was prepared at 10 mM in DMSO. The protein: compound-complex (1:10 molar ratio) was pre-incubated for 1h before the first on-exchange reaction. The HDX reaction was initiated by a 5-fold dilution of the protein stock solution, in the presence and absence of compound 11b, in the corresponding Deuterated buffer at room temperature. Samples were prepared in parallel with three replicates of […]
time point, HDX reactions were quenched with a solution of 3 M Urea and 1% TFA (pH 2.5) followed by online proteolysis with an in-house Pepsin immobilized column and desalting […]
In general terms: Alpha assays give light when donor and acceptor beads are brought close together.

SMILES strings stand for the structures.

Sequence of VDR (P11473 whole entry, the tested form may be a part): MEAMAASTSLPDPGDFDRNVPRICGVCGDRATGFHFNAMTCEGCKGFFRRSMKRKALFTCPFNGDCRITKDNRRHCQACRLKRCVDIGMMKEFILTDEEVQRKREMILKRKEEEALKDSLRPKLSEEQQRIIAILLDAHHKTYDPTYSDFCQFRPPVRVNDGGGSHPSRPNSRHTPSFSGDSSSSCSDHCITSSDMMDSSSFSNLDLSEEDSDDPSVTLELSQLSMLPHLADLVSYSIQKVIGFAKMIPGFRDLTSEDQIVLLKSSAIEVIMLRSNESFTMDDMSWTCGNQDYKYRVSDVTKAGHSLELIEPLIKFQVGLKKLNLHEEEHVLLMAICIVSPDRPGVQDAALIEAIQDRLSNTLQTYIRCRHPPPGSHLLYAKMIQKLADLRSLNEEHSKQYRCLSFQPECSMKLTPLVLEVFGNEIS
Sequence of VDR (P19793 whole entry partner, the tested form may be a part): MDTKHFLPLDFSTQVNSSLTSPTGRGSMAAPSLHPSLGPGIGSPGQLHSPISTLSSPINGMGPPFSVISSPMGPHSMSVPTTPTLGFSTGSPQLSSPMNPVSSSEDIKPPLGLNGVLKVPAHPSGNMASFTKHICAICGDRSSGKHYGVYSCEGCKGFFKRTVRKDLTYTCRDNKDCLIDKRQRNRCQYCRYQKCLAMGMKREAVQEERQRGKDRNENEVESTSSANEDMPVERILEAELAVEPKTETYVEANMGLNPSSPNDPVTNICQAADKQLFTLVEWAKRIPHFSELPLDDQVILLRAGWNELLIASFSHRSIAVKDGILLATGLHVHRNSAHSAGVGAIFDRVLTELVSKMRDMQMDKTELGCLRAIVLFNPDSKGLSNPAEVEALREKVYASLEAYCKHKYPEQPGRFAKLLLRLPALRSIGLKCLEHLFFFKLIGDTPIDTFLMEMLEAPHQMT
Sequence of VDR (Q15648 whole entry partner, the tested form may be a part): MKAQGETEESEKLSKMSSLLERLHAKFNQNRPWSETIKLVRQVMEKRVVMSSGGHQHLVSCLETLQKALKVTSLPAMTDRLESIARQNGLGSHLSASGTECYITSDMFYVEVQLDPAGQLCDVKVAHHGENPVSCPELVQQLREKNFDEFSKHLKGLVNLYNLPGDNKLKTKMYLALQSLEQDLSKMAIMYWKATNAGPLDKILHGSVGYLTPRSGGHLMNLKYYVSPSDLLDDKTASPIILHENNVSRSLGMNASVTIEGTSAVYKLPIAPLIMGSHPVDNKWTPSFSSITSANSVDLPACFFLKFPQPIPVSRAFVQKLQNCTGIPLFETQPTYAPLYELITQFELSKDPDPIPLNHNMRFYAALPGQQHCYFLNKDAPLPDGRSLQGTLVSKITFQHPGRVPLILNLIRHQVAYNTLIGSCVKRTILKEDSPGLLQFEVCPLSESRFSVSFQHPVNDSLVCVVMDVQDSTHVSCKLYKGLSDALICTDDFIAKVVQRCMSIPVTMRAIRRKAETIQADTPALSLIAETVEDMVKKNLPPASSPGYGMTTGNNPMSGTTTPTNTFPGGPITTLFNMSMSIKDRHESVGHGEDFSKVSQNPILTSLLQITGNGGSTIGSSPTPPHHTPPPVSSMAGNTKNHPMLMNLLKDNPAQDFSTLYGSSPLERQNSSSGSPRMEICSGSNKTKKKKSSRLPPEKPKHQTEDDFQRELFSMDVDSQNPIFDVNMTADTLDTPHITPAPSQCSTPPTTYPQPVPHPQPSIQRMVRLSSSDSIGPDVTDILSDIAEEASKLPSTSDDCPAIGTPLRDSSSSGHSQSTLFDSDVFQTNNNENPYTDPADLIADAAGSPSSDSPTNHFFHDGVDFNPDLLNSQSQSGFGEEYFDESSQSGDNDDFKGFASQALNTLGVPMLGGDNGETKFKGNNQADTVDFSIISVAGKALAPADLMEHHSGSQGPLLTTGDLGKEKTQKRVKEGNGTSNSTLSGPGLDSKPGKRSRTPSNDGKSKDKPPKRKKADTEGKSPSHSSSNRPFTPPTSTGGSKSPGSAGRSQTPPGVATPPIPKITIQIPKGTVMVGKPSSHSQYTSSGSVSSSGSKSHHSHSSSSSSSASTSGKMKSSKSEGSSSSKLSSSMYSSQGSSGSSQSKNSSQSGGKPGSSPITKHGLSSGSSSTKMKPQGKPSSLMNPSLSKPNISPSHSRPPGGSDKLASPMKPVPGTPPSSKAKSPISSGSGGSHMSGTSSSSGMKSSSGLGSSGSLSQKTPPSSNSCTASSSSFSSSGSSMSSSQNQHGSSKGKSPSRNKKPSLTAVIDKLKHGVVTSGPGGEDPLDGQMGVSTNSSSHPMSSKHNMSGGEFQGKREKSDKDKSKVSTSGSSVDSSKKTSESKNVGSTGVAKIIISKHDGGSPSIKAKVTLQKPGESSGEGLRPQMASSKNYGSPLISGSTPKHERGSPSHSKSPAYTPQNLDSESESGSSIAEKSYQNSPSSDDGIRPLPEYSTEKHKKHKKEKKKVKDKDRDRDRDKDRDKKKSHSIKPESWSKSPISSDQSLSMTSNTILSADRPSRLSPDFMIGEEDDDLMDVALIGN

With `COC(=O)c1ccc(-c2cccc(/N=N/c3ccc(OCC(O)C(C)(C)C)c(C)c3)c2)cc1` (centres unmarked) [Compound 10a], the “%cis at the photostationary state” value in data set [1] (365 nm) is on record as 93,70%; in data set [1] (380 nm), 91,83%; in data set [1] (405 nm), 60,42%; in data set [1] (420 nm), 58,05%; in data set [1] (470 nm), 29,15%; in data set [1] (500 nm), 25,54%. Also, the “%cis at the photostationary state” value in data set [1] (530 nm) is listed as 20,56%. Besides, the “%trans at the photostationary state” value in data set [1] (365 nm) is on record as 6,30%; in data set [1] (380 nm), 8,17%; in data set [1] (405 nm), 39,58%; in data set [1] (420 nm), 41,95%; in data set [1] (470 nm), 70,85%; in data set [1] (500 nm), 74,46%. Besides, the “%trans at the photostationary state” value in data set [1] (530 nm) is on record as 79,44%. Besides, the EC50 on VDR was 1100 nM. Moreover, the Emax (as a rule, the size of the effect at its maximum, as opposed to the concentration needed) at VDR was found to be 23 ± 2.65%.

For the compound `COC(=O)c1ccc(-c2cccc(/N=N/c3ccc(OCC(O)C(C)(C)C)cc3C)c2)cc1` (centres unmarked) [Compound 10b], the “%cis at the photostationary state” value in data set [1] (365 nm) is 97,26%; in data set [1] (380 nm) it was 96,48%; in data set [1] (405 nm), 66,00%; in data set [1] (420 nm), 62,72%; in data set [1] (470 nm), 34,89%; in data set [1] (500 nm), 35,65%. Moreover, the “%cis at the photostationary state” value in data set [1] (530 nm) is recorded as 31,97%. Also, the “%trans at the photostationary state” value in data set [1] (365 nm) is given as 2,74%; in data set [1] (380 nm), 3,52%; in data set [1] (405 nm) it was 34,00%; in data set [1] (420 nm) it was 37,28%; in data set [1] (470 nm) it was 65,11%; in data set [1] (500 nm) it was 64,35%. The “%trans at the photostationary state” value in data set [1] (530 nm) is listed as 68,03%. Also, the EC50 at VDR is 100 nM. At VDR, this compound showed an Emax of 44 ± 0.66%.

Turning to `COC(=O)c1ccc(-c2cccc(/N=N/c3ccc(OCC(O)C(C)(C)C)c(C)c3)c2)c(C)c1` (centres unmarked) [Compound 10c], the “%cis at the photostationary state” value is reported as 97,00% in data set [1] (365 nm); 95,62% in data set [1] (380 nm); 61,14% in data set [1] (405 nm); 59,71% in data set [1] (420 nm); 30,53% in data set [1] (470 nm); 26,82% in data set [1] (500 nm). In data set [1] (530 nm), the “%cis at the photostationary state” value is 21,34%. Further, the “%trans at the photostationary state” value in data set [1] (365 nm) is given as 3,00%; in data set [1] (380 nm) it was 4,38%; in data set [1] (405 nm), 38,86%; in data set [1] (420 nm), 40,29%; in data set [1] (470 nm), 69,47%; in data set [1] (500 nm), 73,18%. Besides, in data set [1] (530 nm), the “%trans at the photostationary state” value is 78,66%. At VDR, the EC50 is 1860 nM. The maximum response (Emax) on VDR was determined as 29 ± 4.31%.

As for `COC(=O)c1ccc(-c2cccc(/N=N/c3ccc(OCC(O)C(C)(C)C)cc3C)c2)c(C)c1` (centres unmarked) [Compound 10d], the “%cis at the photostationary state” value in data set [1] (365 nm) is on record as 96,30%; in data set [1] (380 nm), 95,32%; in data set [1] (405 nm), 62,22%; in data set [1] (420 nm) it was 59,99%; in data set [1] (470 nm), 29,82%; in data set [1] (500 nm) it was 25,21%. The “%cis at the photostationary state” value in data set [1] (530 nm) is recorded as 20,03%. Besides, the “%trans at the photostationary state” value in data set [1] (365 nm) is listed as 3,70%; in data set [1] (380 nm) it was 4,68%; in data set [1] (405 nm), 37,78%; in data set [1] (420 nm), 40,01%; in data set [1] (470 nm), 70,18%; in data set [1] (500 nm) it was 74,79%. For the same compound, the “%trans at the photostationary state” value in data set [1] (530 nm) is 79,97%. In addition, the EC50 on VDR is 813 nM. For the same compound, the Emax at VDR was found to be 30 ± 1.71%.

Turning to `Cc1cc(/N=N/c2cccc(-c3ccc(C(=O)O)cc3)c2)ccc1OCC(O)C(C)(C)C` (centres unmarked) [Compound 11a], the “%cis at the photostationary state” value in data set [1] (365 nm) was 94,52%; in data set [1] (380 nm) it was 92,81%; in data set [1] (405 nm) it was 60,54%; in data set [1] (420 nm) it was 58,09%; in data set [1] (470 nm) it was 29,80%; in data set [1] (500 nm), 26,59%. Also, in data set [1] (530 nm), the “%cis at the photostationary state” value is 21,22%. The “%trans at the photostationary state” value is recorded as 5,48% in data set [1] (365 nm); 7,19% in data set [1] (380 nm); 39,46% in data set [1] (405 nm); 41,91% in data set [1] (420 nm); 70,20% in data set [1] (470 nm); 73,41% in data set [1] (500 nm). The “%trans at the photostationary state” value in data set [1] (530 nm) is listed as 78,78%. Moreover, the EC50 at VDR was 1260 nM. For the same compound, the Emax on VDR turned out to be 60 ± 1.26%. Moreover, the “Activity in the dark” value at VDR (dark (trans), concentrations up to 10 μM) is “small increase in the activity”.

For the compound `Cc1cc(/N=N/c2cccc(-c3ccc(C(=O)O)cc3C)c2)ccc1OCC(O)C(C)(C)C` (centres unmarked) [Compound 11c], the “%cis at the photostationary state” value is 97,22% in data set [1] (365 nm); 94,72% in data set [1] (380 nm); 61,36% in data set [1] (405 nm); 59,26% in data set [1] (420 nm); 31,49% in data set [1] (470 nm); 28,18% in data set [1] (500 nm). Also, the “%cis at the photostationary state” value in data set [1] (530 nm) is 22,70%. Further, the “%trans at the photostationary state” value in data set [1] (365 nm) is 2,78%; in data set [1] (380 nm) it was 5,28%; in data set [1] (405 nm), 38,64%; in data set [1] (420 nm), 40,74%; in data set [1] (470 nm), 68,51%; in data set [1] (500 nm), 71,82%. Moreover, the “%trans at the photostationary state” value in data set [1] (530 nm) is 77,30%. Also, the EC50 on VDR is 575 nM. This compound returned a maximal response (Emax) on VDR of 68 ± 3.73%.

Take `Cc1cc(OCC(O)C(C)(C)C)ccc1/N=N/c1cccc(-c2ccc(C(=O)O)cc2C)c1` (centres unmarked) [Compound 11d]: the “%cis at the photostationary state” value was 96,79% in data set [1] (365 nm); 95,58% in data set [1] (380 nm); 61,42% in data set [1] (405 nm); 54,69% in data set [1] (420 nm); 28,11% in data set [1] (470 nm); 29,74% in data set [1] (500 nm). Moreover, in data set [1] (530 nm), the “%cis at the photostationary state” value is recorded as 25,59%. Further, the “%trans at the photostationary state” value in data set [1] (365 nm) is 3,21%; in data set [1] (380 nm), 4,42%; in data set [1] (405 nm) it was 38,58%; in data set [1] (420 nm), 45,31%; in data set [1] (470 nm), 71,89%; in data set [1] (500 nm) it was 70,26%. Also, the “%trans at the photostationary state” value in data set [1] (530 nm) was 74,41%. The EC50 at VDR was 209 nM. In addition, the Emax on VDR amounted to 93 ± 6.73%.
